Measured values from patent US20040086569A1, “Active agent delivery systems, medical devices, and methods” (Medtronic, Inc., priority 2002, published 2004).

Tests used:
[1] = Merck Index; cited from earlier work
[2] = Dissolution of coumarin from PL75D/TP blend cap-coated shims in PBS; format: physicochemical; settings: FIG. 19
Experimental: P[…] was dried at 70° C. at reduced pressure overnight. The dried pellets were compressed between two plates that were pre-heated to 230° C. and maintained for about 5 minutes. After the sample was cooled down to room temperature, it was placed in a vial filled with THF and stirred until dissolved (by visual observation). […] Coumarin was also dissolved in THF. The concentrations of all the solutions were about 1 wt-%. TL solution and coumarin solution were mixed at a weigh ratio of 1:1. This mixture is the base coating solution of a reservoir system. TP solution and P[…] solution were mixed at various weight ratios to make five different mixtures with the weight ratios of TP to P[…] being 100:0, 75:25, 50:50, 25:75, and 0:100. These solutions are referred to herein as cap coating solutions of the reservoir system. Dissolution samples were prepared with stainless steel (316L) shims (12.1×38.1 mm^2) that were cleaned by rinsing with THF. The cleaned shims were coated with the […] solution. The coated shims were allowed to dry overnight under nitrogen. […] This thermal treatment led to formation of a primer on the surface of the shims that promoted their adhesion with polymer/active agent layers. […] The concentration of coumarin in all these solutions was measured with a liquid chromatography (HP 1090) that was equipped with a UV detector. […]

- Release rates from the PL75D/TP blends ([2]; cap coat blends): between that from the two pure polymers
SMILES: O=c1ccc2ccccc2o1 [coumarin]
- Volume of cold water that dissolves one gram [1]: 400 mL
- Release rate, pure cap-coat polymers compared ([2]; 100% PL75D versus 100% TP cap coat): release much faster from a 100% PL75D coated shim than that from 100% TP coated shim
